In patent US11098061B2 (Celgene CAR LLC, priority 2013, dated 2021):

Assays:
MK2 [1] = molecular target: T1, MK2 (Homo sapiens (Human), UniProt P49137); experiment: MK2 cellular assay (Hsp27 phosphorylation in Thp-1 cells); type: cell-based; settings: differentiated Thp-1 cells, compound 1 hour, 50 ng/ml LPS 15 minutes, phosphorylation of Hsp27; read-out: MK2EC50
Method in brief: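 PMA-differentiated (10 ng/ml, 2 days) human Thp-1 monocytic cells given compound for 1 h, washed, then stimulated with 50 ng/ml LPS for 15 min. Hsp27 phosphorylation measured by western blot of lysates (20 μg protein); EC50 from dose-response inhibition.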

MK2 [2] = molecular target: T1, MK2; experiment: MK2 target occupancy assay in Thp-1 cells with Covalent probe 2; type: cell-based; settings: 1 μM test compound, 1 hour at 37° C.
Procedure: This experiment measured occupancy of the MK2 target by compounds according to the invention. Thp-1 cells (human acute monocytic leukemia) were grown in suspension in T225 flasks. Two days prior to assay, Thp-1 cells were spun down, counted and plated at 1×10^6 cells per well of a 12 well plate in compete media containing 10 ng/ml PMA (phorbol myristate acetate) to differentiate the cells. On day of assay, cells were washed with complete media, and a -test compound was added to cells at a concentration of 1 μM in complete media and incubated for 1 hour at 37° C. Cells were washed 1× with PBS and lysed on ice with BioRad Bioplex lysis buffer. The lysates were incubated with 1 μM biotinylated MK2 Covalent probe 2 at room temperature for 1 hour. 50 μg of total protein from lysates was loaded on gel and blots were probed for total MK2 with SC-100393 antibody and for probe with streptavidin-800. The amount of covalent probe signal divided by the amount of MK2 signal for samples with no test compound treatment represents the maximum probe signal (MPS). In samples treated with test compound prior to covalent probe, the ratio of probe signal to MK2 signal (the test probe signal, TPS) will be reduced by the degree of target occupancy by the test compound which blocks covalent probe binding. […] This ratio is then expressed as a percent occupancy.

MK2 [3] = molecular target: T1, MK2; experiment: MK2 Thp-1 washout assay; type: cell-based; settings: up to 6 hours after a 100 nM exposure (1 hour) and subsequent washout, Thp-1 cells
Procedure: Test compounds were assayed in Thp-1 human acute monocytic leukemia cells. Thp-1 were grown in suspension in T225 flasks. Two days prior to assay, Thp-1 cells were spun down, counted and plated at 1×10^6 cells per well of a 12 well plate in complete media containing 10 ng/ml PMA (phorbol myristate acetate) to differentiate the cells. […] Cells were thoroughly washed to remove the unbound test compound and placed back in the 37° C. tissue culture incubator for the washout period (0 h, 2 h, 6 h, or 16 h). After the washout, complete media containing 50 ng/ml LPS (lipopolysaccharide) was added for 15 minute stimulation, the cells were washed once with PBS, and protein lysates were prepared on ice with BioRad Bioplex lysis buffer. 20 μg total protein from each lysate was loaded on the gel and analyzed by SDS-PAGE. Western blots were probed for phosphorylation of the MK2 substrate Hsp27.

MK2 [4] = molecular target: T1, MK2; experiment: MK2 modification assessment by whole protein mass spectrometry; type: binding; settings: intact MK2, 60 min, 10-fold excess of compound to protein
Method in brief: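 MK2 treated with compound is analysed intact by MALDI-TOF after C4 cleanup in sinapinic acid matrix. Percent modification is the centroid mass shift against control MK2 divided by compound mass.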

[5] = molecular target: p38a activated, mitogen-activated protein kinase-activated protein kinase 2 (MAPKAP-K2 or MK-2) enzyme (Homo sapiens (Human), UniProt P49137); experiment: MK2 Omnia continuous-read kinase assay for compound potency; type: biochemical; settings: [MK-2]=0.4 nM, [ATP]=1.0 mM, [ST3-Sox]=10 μM
p38a activated, mitogen-activated protein kinase-activated protein kinase 2 (MAPKAP-K2 or MK-2) enzyme, sequence (P49137 whole entry): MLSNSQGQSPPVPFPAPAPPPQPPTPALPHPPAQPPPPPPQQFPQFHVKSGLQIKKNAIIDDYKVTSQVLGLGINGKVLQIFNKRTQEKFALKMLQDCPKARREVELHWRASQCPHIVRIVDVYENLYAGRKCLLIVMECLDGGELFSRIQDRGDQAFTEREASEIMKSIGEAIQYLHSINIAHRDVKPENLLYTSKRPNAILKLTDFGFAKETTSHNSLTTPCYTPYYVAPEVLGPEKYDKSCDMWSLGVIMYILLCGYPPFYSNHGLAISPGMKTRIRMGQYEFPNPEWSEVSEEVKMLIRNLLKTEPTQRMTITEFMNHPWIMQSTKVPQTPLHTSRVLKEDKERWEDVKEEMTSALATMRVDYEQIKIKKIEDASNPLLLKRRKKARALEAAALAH
Method in brief: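 Continuous Omnia fluorescence read (λex360/λem485) every 71 s after starting with 0.4 nM MK-2, with 1.0 mM ATP (appKM 8-10 μM) and 10 μM ST3-Sox substrate.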

TNFα release [6] = experiment: IV mouse PD experiment (TNFα release after LPS); type: in vivo; settings: CD-1 male mice, less than 10 mg/kg IV, 1 hour prior to LPS
Procedure: CD-1 male mice, approximately 5 weeks old were acquired from Charles River Laboratories. Animals were housed in ventilated cages with a 12/12 light cycle and provided rodent chow and water ad libitum. Mice were acclimated at least 1 week prior to study initiation (approximately 6 weeks old). Five (5) mice per group were predosed with one of the following compounds: II-14, III-32, III-8, III-4, II-27 and III-40 (intravenously by lateral tail vein), 1 hour prior to LPS administration. LPS (E.Coli 055:B5 from Sigma, Cat #L2880) was diluted in 0.9% sterile saline (Webster Veterinary Supply, Cat #07-883-6734) to a final concentration of 30 μg/mL. Animals were administered 15 μg in 0.5 mL/mouse (approximately 0.5 mg/kg LPS) intraperitoneally. One hour post LPS administration, the mice were sacrificed via CO2 and whole blood was collected by cardiac puncture. Blood was placed in EDTA K2 tubes (Braintree Scientific, Cat #MT-1395), inverted 3 times and placed on wet ice until centrifugation at 4° C. Plasma was collected and stored on dry ice until stored at −80° C. until processing. TNFα levels were quantified using the “Mouse TNF-alpha Ultra-Sensitive Kit” from mesoscale.com (catalog number K152BHC-2) in conjunction with an MSD plate reader.

TNFα release [7] = experiment: PO mouse PD experiment (TNFα release after LPS); type: in vivo; settings: CD-1 male mice, 30 mg/kg PO, 1 hour prior to LPS, read-out: % Inhibition of TNFa
Procedure: CD-1 male mice, approximately 5 weeks old were acquired from Charles River Laboratories. Animals were housed in ventilated cages with a 12/12 light cycle and provided rodent chow and water ad libitum. Mice were acclimated at least 1 week prior to study initiation (approximately 6 weeks old). Five (5) mice per group were predosed at 30 mg/kg PO with one of the following compounds: III-8, III-35, II-27, III-47, III-56, V-39, II-27, III-37, II-e-1, II-e-3, III-40, and V-58 (by oral gavage as a suspension in 0.5% methyl cellulose/0.25% Tween 80 in deionized water), 1 hour prior to LPS administration. LPS (E.Coli 055:B5 from Sigma, Cat #L2880) was diluted in 0.9% sterile saline (Webster Veterinary Supply, Cat #07-883-6734) to a final concentration of 30 μg/mL. Animals were administered 15 μg in 0.5 mL/mouse (approximately 0.5 mg/kg LPS) intraperitoneally. One hour post LPS administration, the mice were sacrificed via CO2 and whole blood was collected by cardiac puncture. Blood was placed in EDTA K2 tubes (Braintree Scientific, Cat #MT-1395), inverted 3 times and placed on wet ice until centrifugation at 4° C. Plasma was collected and stored on dry ice until stored at −80° C. until processing. TNFα levels were quantified using the “Mouse TNF-alpha Ultra-Sensitive Kit” from mesoscale.com (catalog number K152BHC-2) in conjunction with an MSD plate reader.

TNFα release [8] = experiment: PO mouse PD experiment (TNFα release after LPS); type: in vivo; settings: CD-1 male mice, 100 mg/kg PO, 1 hour prior to LPS, read-out: % Inhibition of TNFa

T1 sequence (P49137 whole entry): as above

| EC50 (MK2 [1]) | receptor occupancy at 1 µM (MK2 [2]) | inhibition of p-hsp27 (phosphorylated hsp27) after washout (MK2 [3]) | MK2 Mass Mod (MK2 [4]) | IC50 [5] | Compound | reduction in TNFα release compared to untreated control (TNFα release [6]) | inhibition in vivo at 30 mg/kg (TNFα release [7]) | inhibition in vivo at 100 mg/kg (TNFα release [8]) |
| --- | --- | --- | --- | --- | --- | --- | --- | --- |
| < 100 nM | 95% | > 95% | E (mass modification of ≥70%) | < 100 nM | C=CC(=O)Nc1cc(-c2cc3c(cn2)CCc2c-3[nH]c3c2C(=O)NC2(CC2)C3)ccc1OCCOC [II-11, N-(2-(2-methoxyethoxy)-5-(7′-oxo-5′,6′,7′,8′8′,1′,11′-hexahydrospiro[cyclopropane-1,9′-pyrido[3′,4′:4,5]pyrrolo[2,3-f]isoquinolin]-2′-yl)phenyl)acrylamide] |  |  |  |
| < 100 nM |  |  | E (mass modification of ≥70%) | < 100 nM | C=CC(=O)Nc1cc(-c2cc3c(cn2)CCc2c-3[nH]c3c2C(=O)NCC3)cnc1OCCOC [II-14, N-(2-(2-methoxyethoxy)-5-(7-oxo-6,7,8,9,10,11-hexahydro-5H-pyrido[3′,4′:4,5]pyrrolo[2,3-f]isoquinolin-2-yl)pyridin-3-yl)acrylamide] | greater than 90% |  |  |
| < 100 nM |  |  | E (mass modification of ≥70%) | < 100 nM | C=CC(=O)Nc1cc(-c2cc3c(cn2)CCc2c-3[nH]c3c2C(=O)NC2(CC2)C3)ccc1N1CCN(C)CC1 [II-27, N-(2-(4-methylpiperazin-1-yl)-5-(7′-oxo-5′,6′,7′,8′,10′,11′-hexahydrospiro[cyclopropane-1,9′-pyrido[3′,4′:4,5]pyrrolo[2,3-f]isoquinolin]-2′-yl)phenyl)acrylamide] | greater than 90% | ≤ 20% |  |
| 501 to 999 nM |  |  | E (mass modification of ≥70%) | 101 to 500 nM | C=CC(=O)Nc1cccc(-c2cc3c(ccc4c5c([nH]c43)CCC5=O)cn2)c1 [II-e-1, N-(3-(7-oxo-7,8,9,10-tetrahydrocyclopenta[4,5]pyrrolo[2,3-f]isoquinolin-2-yl)phenyl)acrylamide] |  | ≤ 20% |  |
| < 100 nM |  |  | E (mass modification of ≥70%) | < 100 nM | C=CC(=O)Nc1cc(NC(=O)c2ccc3sc4c(c3c2)NC[C@@H](C)NC4=O)ccc1N1CCN(C)CC1 [III-4, (R)—N-(3-acrylamido-4-(4-methylpiperazin-1-yl)phenyl)-3-methyl-5-oxo-2,3,4,5-tetrahydro-1H-benzo[4,5]thieno[3,2-e][1,4]diazepine-9-carboxamide] | greater than 90% |  |  |
| < 100 nM | 92% |  | E (mass modification of ≥70%) | 101 to 500 nM | C=CC(=O)Nc1cc(-c2ccc3c(ccc4sc5c(c43)NC[C@@H](C)NC5=O)n2)ccc1OCCOC [III-8, (R)—N-(2-(2-methoxyethoxy)-5-(10-methyl-8-oxo-9,10,11,12-tetrahydro-8H-[1,4]diazepino[5′,6′:4,5]thieno[3,2-f]quinolin-3-yl)phenyl)acrylamide] | greater than 90% |  | 21 to 80% |
| < 100 nM |  |  | E (mass modification of ≥70%) | < 100 nM | C=CC(=O)N1CC(C)(C)Oc2ccc(NC(=O)c3ccc4sc5c(c4c3)NC[C@@H](C)NC5=O)cc21 [III-32, (R)—N-(4-acryloyl-2,2-dimethyl-3,4-dihydro-2H-benzo[b][1,4]oxazin-6-yl)-3-methyl-5-oxo-2,3,4,5-tetrahydro-1H-benzo[4,5]thieno[3,2-e][1,4]diazepine-9-carboxamide] | greater than 90% |  |  |
| 101 to 500 nM |  |  | E (mass modification of ≥70%) | < 100 nM | C=CC(=O)Nc1cc(NC(=O)c2ccc3sc4c(c3c2)NC[C@@H](C)NC4=O)ccc1OCCN(C)C [III-35, (R)—N-(3-acrylamido-4-(2-(dimethylamino)ethoxy)phenyl)-3-methyl-5-oxo-2,3,4,5-tetrahydro-1H-benzo[4,5]thieno[3,2-e][1,4]diazepine-9-carboxamide] |  | ≤ 20% |  |
| < 100 nM |  |  | E (mass modification of ≥70%) | < 100 nM | C=CC(=O)Nc1cc(-c2ccc3c(ccc4sc5c(c43)NC[C@@H](C)NC5=O)n2)ccc1C [III-37, (R)—N-(2-methyl-5-(10-methyl-8-oxo-9,10,11,12-tetrahydro-8H-[1,4]diazepino[5′,6′:4,5]thieno[3,2-f]quinolin-3-yl)phenyl)acrylamide] |  | ≤ 20% |  |
| < 100 nM |  |  |  | < 100 nM | C=CC(=O)Nc1cc(-c2ccc3c(ccc4sc5c(c43)NC[C@@H](C)NC5=O)n2)ccc1OCCN(C)C [III-40, (R)—N-(2-(2-(dimethylamino)ethoxy)-5-(10-methyl-8-oxo-9,10,11,12-tetrahydro-8H-[1,4]diazepino[5′,6′:4,5]thieno[3,2-f]quinolin-3-yl)phenyl)acrylamide] | greater than 90% | ≤ 20% |  |
| < 100 nM |  |  | E (mass modification of ≥70%) | < 100 nM | C=CC(=O)NC1CCCC1NC(=O)c1ccc2sc3c(c2c1)NC[C@@H](C)NC3=O (stereo partly drawn) [III-47] |  | ≤ 20% |  |
